{"source": "the NIST ThermoML archive (doi:10.1016/j.jct.2010.09.009)", "test": "xn = mol fraction of the nth substance listed", "conditions": "101 kPa, Liquid, Vibrating tube method, x2 = 0", "note": "Numbers after ± are expanded uncertainties."}
{"smiles": "O", "note": "[water] + CCC[N+](CCC)(CCC)CCC.[Br-]", "values": [{"measurement": "mass density", "setting": "278.15 K", "value": "999.97 ± 0.05", "unit": "kg/m3"}, {"measurement": "mass density", "setting": "283.15 K", "value": "999.7 ± 0.05", "unit": "kg/m3"}]}
